Results taken from ChEMBL document CHEMBL5634136 (Eur J Med Chem, 2023).
pIC50: −log10 of the molar value. Activity calls are given as the source filed them. The rule behind the calls is not given here.

Key:
[1] = molecular target: T1, Epidermal growth factor receptor (Homo sapiens, UniProt P00533, C797S/EX19DEL/T790M); assay: Inhibition of EGFR Del19/T790M/C797S mutant (unknown origin)
KC-0116 [2] = assay: Antitumor activity against mouse KC-0116 cells xenografted in BALB/c mouse assessed as reduction in tumor weight at 40 mg/kg,po administrated once daily for 10 days; format: functional, organism-based; details: time 10.0 day
[3] = molecular target: Epidermal growth factor receptor (Mus musculus) (UniProt Q01279); assay: Inhibition of EGFR in mouse KC-0122 cells assessed as downregulation of EGFR phosphorylation level incubated for 24 hrs by Western blotting analysis; format: cell-based
Sequence of Epidermal growth factor receptor (Mus musculus) (Q01279 whole entry): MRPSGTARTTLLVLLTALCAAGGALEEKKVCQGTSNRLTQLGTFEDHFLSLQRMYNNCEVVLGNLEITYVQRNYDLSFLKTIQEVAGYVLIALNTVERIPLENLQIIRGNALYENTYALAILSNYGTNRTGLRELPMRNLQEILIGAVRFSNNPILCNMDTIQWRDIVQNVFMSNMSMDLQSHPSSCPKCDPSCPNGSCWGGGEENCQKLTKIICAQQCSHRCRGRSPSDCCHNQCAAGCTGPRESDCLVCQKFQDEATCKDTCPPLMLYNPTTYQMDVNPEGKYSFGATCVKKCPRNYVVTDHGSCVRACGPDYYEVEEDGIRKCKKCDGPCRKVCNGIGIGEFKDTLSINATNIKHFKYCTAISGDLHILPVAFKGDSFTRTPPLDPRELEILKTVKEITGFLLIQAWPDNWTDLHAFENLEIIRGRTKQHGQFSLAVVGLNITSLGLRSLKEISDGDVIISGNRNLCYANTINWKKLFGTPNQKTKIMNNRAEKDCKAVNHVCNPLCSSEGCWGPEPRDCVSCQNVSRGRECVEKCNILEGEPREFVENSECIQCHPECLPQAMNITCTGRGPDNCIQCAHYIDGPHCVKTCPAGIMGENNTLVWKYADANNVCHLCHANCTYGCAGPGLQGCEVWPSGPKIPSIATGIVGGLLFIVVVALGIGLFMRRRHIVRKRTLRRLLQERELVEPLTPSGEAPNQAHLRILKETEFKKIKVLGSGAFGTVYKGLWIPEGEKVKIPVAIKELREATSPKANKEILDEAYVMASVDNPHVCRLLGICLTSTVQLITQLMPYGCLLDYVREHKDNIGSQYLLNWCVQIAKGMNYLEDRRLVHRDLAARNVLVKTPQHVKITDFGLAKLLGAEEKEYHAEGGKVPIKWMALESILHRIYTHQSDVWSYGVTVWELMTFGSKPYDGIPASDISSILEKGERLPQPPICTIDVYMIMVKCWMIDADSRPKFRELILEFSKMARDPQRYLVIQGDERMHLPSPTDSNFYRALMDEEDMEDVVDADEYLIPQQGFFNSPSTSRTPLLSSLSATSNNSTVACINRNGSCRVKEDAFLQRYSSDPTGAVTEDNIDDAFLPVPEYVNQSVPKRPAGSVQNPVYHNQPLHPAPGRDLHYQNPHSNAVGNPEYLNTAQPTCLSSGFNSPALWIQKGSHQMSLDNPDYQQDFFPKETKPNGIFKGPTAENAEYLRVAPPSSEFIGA

[4] = Induction of apoptosis in mouse KC-0116 cells assessed as late apoptotic cells at 10 uM incubated for 48 hrs by annexin V-FITC/ PI staining based flow cytometry (reference value: 1 %); format: functional
[5] = Toxicity in BALB/c mouse xenografted with mouse KC-0116 cells assessed as change in body weight at 10 mg/kg,po administrated once daily for 10 days; format: organism-based; details: in vivo, 240 h, time 10 day
[6] = Induction of apoptosis in mouse KC-0116 cells assessed as late apoptotic cells at 1 uM incubated for 48 hrs by annexin V-FITC/ PI staining based flow cytometry (reference value: 1 %); format: functional
NCI-H1975 = assay: Antiproliferative activity against human NCI-H1975 cells harboring EGFR L858R/T790M mutant assessed as inhibition of cell growth incubated for 72 hrs by MTT assay; format: functional, cell-based; details: NCI-H1975, 72 h
[7] = Induction of apoptosis in mouse KC-0116 cells assessed as viable cells at 10 uM incubated for 48 hrs by annexin V-FITC/ PI staining based flow cytometry (reference value: 93.27 %); format: functional; details: read-out: Activity
[8] = molecular target: Epidermal growth factor receptor (Mus musculus) (UniProt Q01279); assay: Inhibition of EGFR in mouse KC-0116 cells assessed as downregulation of EGFR phosphorylation level incubated for 24 hrs by Western blotting analysis; format: cell-based
[9] = Antitumor activity against mouse KC-0116 cells xenografted in BALB/c mouse assessed as tumor growth inhibition at 40 mg/kg,po administrated once daily for 10 days relative to control; format: functional; details: KC-0116, 240 h, time 10 day, read-out: TGI
HepG2 = assay: Antiproliferative activity against human HepG2 cells harboring VEGFR assessed as inhibition of cell growth incubated for 72 hrs by MTT assay; format: functional, cell-based; details: HepG2, 72 h
[10] = Induction of apoptosis in mouse KC-0116 cells assessed as early apoptotic cells at 1 uM incubated for 48 hrs by annexin V-FITC/ PI staining based flow cytometry (reference value: 8.09 %); format: functional
[11] = molecular target: Epidermal growth factor receptor (Mus musculus) (UniProt Q01279); assay: Inhibition of EGFR in mouse KC-0116 cells assessed as downregulation of ERK protein expression level incubated for 24 hrs by Western blotting analysis; format: cell-based
[12] = Induction of apoptosis in mouse KC-0116 cells assessed as necrotic cells at 10 uM incubated for 48 hrs by annexin V-FITC/ PI staining based flow cytometry (reference value: 0.04 %); format: functional
[13] = Induction of apoptosis in mouse KC-0116 cells assessed as viable cells at 0.1 uM incubated for 48 hrs by annexin V-FITC/ PI staining based flow cytometry (reference value: 93.27 %); format: functional; details: read-out: Activity
[14] = molecular target: Epidermal growth factor receptor (Mus musculus) (UniProt Q01279); assay: Inhibition of EGFR in mouse KC-0116 cells assessed as downregulation of AKT protein expression level incubated for 24 hrs by Western blotting analysis; format: cell-based
[15] = molecular target: Epidermal growth factor receptor (Mus musculus) (UniProt Q01279); assay: Inhibition of EGFR in mouse KC-0122 cells assessed as downregulation of EGFR phosphorylation level at 1 uM incubated for 24 hrs by Western blotting analysis; format: cell-based
[16] = Induction of apoptosis in mouse KC-0116 cells assessed as early apoptotic cells at 10 uM incubated for 48 hrs by annexin V-FITC/ PI staining based flow cytometry (reference value: 8.09 %); format: functional
[17] = molecular target: Epidermal growth factor receptor (Mus musculus) (UniProt Q01279); assay: Inhibition of EGFR in mouse KC-0122 cells assessed as downregulation of ERK protein expression level at 1 uM incubated for 24 hrs by Western blotting analysis; format: cell-based
A-431 = assay: Antiproliferative activity against human A-431 cells harboring wild type EGFR assessed as inhibition of cell growth incubated for 72 hrs by MTT assay; format: functional, cell-based; details: A-431, 72 h
[18] = molecular target: Epidermal growth factor receptor (Mus musculus) (UniProt Q01279); assay: Inhibition of EGFR in mouse KC-0116 cells assessed as downregulation of AKT protein expression level at 1 uM incubated for 24 hrs by Western blotting analysis; format: cell-based
[19] = Toxicity in BALB/c mouse xenografted with mouse KC-0116 cells assessed as change in body weight at 40 mg/kg,po administrated once daily for 10 days; format: organism-based; details: in vivo, 240 h, time 10 day
[20] = Antiproliferative activity against mouse KC-0116 cells assessed as inhibition of cell growth incubated for 72 hrs by MTT assay; format: functional, cell-based; details: KC-0116, 72 h
HCC827 = assay: Antiproliferative activity against human HCC827 cells harboring EGFR Del19 mutant assessed as inhibition of cell growth incubated for 72 hrs by MTT assay; format: functional, cell-based; details: HCC827, 72 h
[21] = molecular target: Epidermal growth factor receptor (Mus musculus) (UniProt Q01279); assay: Inhibition of EGFR in mouse KC-0122 cells assessed as downregulation of AKT protein expression level at 1 uM incubated for 24 hrs by Western blotting analysis; format: cell-based
KC-0116 [22] = assay: Induction of cell cycle arrest in mouse KC-0116 cells assessed as accumulation of cells at G1 phase at 1 uM incubated for 24 hrs by RNase/PI staining based flow cytometry; format: functional
[23] = Induction of apoptosis in mouse KC-0116 cells assessed as necrotic cells at 0.1 uM incubated for 48 hrs by annexin V-FITC/ PI staining based flow cytometry (reference value: 0.04 %); format: functional
[24] = Induction of apoptosis in mouse KC-0116 cells assessed as necrotic cells at 1 uM incubated for 48 hrs by annexin V-FITC/ PI staining based flow cytometry (reference value: 0.04 %); format: functional
[25] = molecular target: Epidermal growth factor receptor (Mus musculus) (UniProt Q01279); assay: Inhibition of EGFR in mouse KC-0122 cells assessed as downregulation of ERK protein expression level incubated for 24 hrs by Western blotting analysis; format: cell-based
[26] = molecular target: Epidermal growth factor receptor (Mus musculus) (UniProt Q01279); assay: Inhibition of EGFR in mouse KC-0116 cells assessed as downregulation of EGFR phosphorylation level at 1 uM incubated for 24 hrs by Western blotting analysis; format: cell-based
[27] = Induction of apoptosis in mouse KC-0116 cells assessed as early apoptotic cells at 0.1 uM incubated for 48 hrs by annexin V-FITC/ PI staining based flow cytometry (reference value: 8.09 %); format: functional
[28] = molecular target: Epidermal growth factor receptor (Mus musculus) (UniProt Q01279); assay: Inhibition of EGFR in mouse KC-0122 cells assessed as downregulation of AKT protein expression level incubated for 24 hrs by Western blotting analysis; format: cell-based
[29] = Induction of apoptosis in mouse KC-0116 cells assessed as viable cells at 1 uM incubated for 48 hrs by annexin V-FITC/ PI staining based flow cytometry (reference value: 93.27 %); format: functional; details: Mus musculus, KC-0116, read-out: Activity
[30] = Antitumor activity against mouse KC-0116 cells xenografted in BALB/c mouse assessed as tumor growth inhibition at 10 mg/kg,po administrated once daily for 10 days relative to control; format: functional; details: KC-0116, 240 h, time 10 day, read-out: TGI
[31] = molecular target: Epidermal growth factor receptor (Mus musculus) (UniProt Q01279); assay: Inhibition of EGFR in mouse KC-0116 cells assessed as downregulation of ERK protein expression level at 1 uM incubated for 24 hrs by Western blotting analysis; format: cell-based
[32] = Induction of apoptosis in mouse KC-0116 cells assessed as late apoptotic cells at 0.1 uM incubated for 48 hrs by annexin V-FITC/ PI staining based flow cytometry (reference value: 1 %); format: functional
[33] = Antiproliferative activity against mouse KC-0122 cells assessed as inhibition of cell growth incubated for 72 hrs by MTT assay; format: functional, cell-based; details: KC-0122, 72 h
[34] = molecular target: Epidermal growth factor receptor (Homo sapiens, UniProt P00533, C797S/L858R/T790M); assay: Inhibition of EGFR L858R/T790M/C797S mutant (unknown origin)
Sequence of Epidermal growth factor receptor (Homo sapiens, UniProt P00533, C797S/L858R/T790M) (P00533 25-1210 T790M/C797S/L858R limits assumed): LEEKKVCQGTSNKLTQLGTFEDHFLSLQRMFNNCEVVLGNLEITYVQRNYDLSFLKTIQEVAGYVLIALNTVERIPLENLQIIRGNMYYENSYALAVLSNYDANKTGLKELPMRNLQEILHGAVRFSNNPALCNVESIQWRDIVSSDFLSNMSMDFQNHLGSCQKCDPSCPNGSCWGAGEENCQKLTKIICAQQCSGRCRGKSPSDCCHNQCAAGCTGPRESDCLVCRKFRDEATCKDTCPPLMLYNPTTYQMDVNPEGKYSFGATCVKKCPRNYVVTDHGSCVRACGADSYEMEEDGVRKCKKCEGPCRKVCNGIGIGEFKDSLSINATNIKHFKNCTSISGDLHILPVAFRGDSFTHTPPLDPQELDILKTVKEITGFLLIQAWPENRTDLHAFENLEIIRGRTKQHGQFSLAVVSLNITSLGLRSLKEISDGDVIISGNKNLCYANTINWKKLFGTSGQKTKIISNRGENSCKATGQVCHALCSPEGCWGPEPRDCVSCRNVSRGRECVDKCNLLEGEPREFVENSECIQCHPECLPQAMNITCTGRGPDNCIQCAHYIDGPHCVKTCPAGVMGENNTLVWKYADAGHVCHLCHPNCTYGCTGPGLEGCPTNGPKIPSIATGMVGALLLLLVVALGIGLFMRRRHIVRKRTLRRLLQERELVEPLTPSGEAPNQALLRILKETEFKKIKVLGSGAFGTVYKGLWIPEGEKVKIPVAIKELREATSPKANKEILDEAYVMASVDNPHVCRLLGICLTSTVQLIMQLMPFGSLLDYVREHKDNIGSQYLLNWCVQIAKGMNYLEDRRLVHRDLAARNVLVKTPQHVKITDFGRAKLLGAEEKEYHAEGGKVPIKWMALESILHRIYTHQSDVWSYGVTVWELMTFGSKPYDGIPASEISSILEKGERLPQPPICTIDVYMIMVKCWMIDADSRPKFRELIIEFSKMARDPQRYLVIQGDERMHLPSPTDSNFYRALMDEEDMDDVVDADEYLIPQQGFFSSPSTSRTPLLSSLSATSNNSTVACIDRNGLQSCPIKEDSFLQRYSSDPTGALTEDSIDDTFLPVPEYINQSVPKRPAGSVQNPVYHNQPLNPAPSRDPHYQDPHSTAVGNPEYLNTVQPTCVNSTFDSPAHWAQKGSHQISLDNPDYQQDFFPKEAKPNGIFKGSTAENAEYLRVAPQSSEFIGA

[35] = molecular target: T1, Epidermal growth factor receptor; assay: Inhibition of recombinant EGFR Del19/T790M/C797S mutant (unknown origin) in presence of ATP by TR-FRET assay

T1 sequence (P00533 whole entry, looked up, stated change not applied): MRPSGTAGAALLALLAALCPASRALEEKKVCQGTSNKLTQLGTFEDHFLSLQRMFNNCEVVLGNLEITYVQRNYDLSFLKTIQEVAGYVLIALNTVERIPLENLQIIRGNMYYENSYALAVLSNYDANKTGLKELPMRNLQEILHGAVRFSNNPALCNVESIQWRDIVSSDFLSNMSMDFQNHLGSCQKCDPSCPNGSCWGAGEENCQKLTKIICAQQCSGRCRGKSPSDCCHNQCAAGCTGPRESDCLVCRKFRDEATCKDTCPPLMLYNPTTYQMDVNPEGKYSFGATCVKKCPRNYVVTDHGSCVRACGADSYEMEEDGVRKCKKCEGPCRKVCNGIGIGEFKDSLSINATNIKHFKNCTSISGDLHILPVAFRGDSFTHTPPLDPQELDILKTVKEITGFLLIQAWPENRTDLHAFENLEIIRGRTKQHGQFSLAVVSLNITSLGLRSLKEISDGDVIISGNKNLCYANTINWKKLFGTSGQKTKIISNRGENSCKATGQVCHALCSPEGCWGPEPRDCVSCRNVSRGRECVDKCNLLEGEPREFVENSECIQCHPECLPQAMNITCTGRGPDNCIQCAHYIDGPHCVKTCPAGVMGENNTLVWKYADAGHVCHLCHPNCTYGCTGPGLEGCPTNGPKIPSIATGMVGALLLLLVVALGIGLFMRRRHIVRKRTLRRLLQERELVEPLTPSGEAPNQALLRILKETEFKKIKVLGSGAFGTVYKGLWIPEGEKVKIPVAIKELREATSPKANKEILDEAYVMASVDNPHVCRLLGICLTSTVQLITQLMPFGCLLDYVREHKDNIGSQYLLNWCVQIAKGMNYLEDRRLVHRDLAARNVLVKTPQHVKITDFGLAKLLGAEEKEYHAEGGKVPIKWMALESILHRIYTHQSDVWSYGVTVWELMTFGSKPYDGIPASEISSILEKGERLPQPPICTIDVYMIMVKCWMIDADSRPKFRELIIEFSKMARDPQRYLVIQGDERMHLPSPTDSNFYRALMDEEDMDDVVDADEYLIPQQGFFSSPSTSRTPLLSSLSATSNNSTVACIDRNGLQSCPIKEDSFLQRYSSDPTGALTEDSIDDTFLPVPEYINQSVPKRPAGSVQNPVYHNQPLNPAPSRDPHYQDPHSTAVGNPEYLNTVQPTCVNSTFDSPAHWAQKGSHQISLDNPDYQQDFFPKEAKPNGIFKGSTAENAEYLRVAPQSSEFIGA

With `CN(C)C1CCN(c2ccc(Nc3nccc(-c4cn(C)c5ccccc45)n3)cc2NS(C)(=O)=O)CC1` the pIC50 [1] was 7.74, the Activity (KC-0116 [2]) was “Active” and the inhibition [3] was “Dose-Dependent Effect”. For the same compound, the Activity [4] was 0.77%, the Activity [5] was “Non-Toxic” and the Activity [6] was 2.66%. For the same compound, the pIC50 (NCI-H1975) was 6.00, the viability at 10 µM [7] was 1.53% and the inhibition [8] was “Dose-Dependent Effect”. The inhibition in vivo at 40 mg/kg [9] was 77.6%, the pIC50 (HepG2) was 5.75 and the Activity [10] was 25.29%. The inhibition [11] was “Dose-Dependent Effect”, the Activity [12] was 0.09% and the viability at 0.1 µM [13] was 92.9%. For the same compound, the inhibition [14] was “Dose-Dependent Effect”, the inhibition [15] was “Active” and the Activity [16] was 91.42%. The inhibition [17] was “Active”, the pIC50 (A-431) was 5.70 and the inhibition [18] was “Active”. The Activity [19] was “Non-Toxic”, the pIC50 [20] was 6.80 and the pIC50 (HCC827) was 6.80. The inhibition [21] was “Active”, the Activity (KC-0116 [22]) was “Active” and the Activity [23] was 0.08%. For the same compound, the Activity [24] was 0.17%, the inhibition [25] was “Dose-Dependent Effect” and the inhibition [26] was “Active”. For the same compound, the Activity [27] was 5.5%, the inhibition [28] was “Dose-Dependent Effect” and the viability at 1 µM [29] was 72.9%. The inhibition in vivo at 10 mg/kg [30] was 28.4%, the inhibition [31] was “Active” and the Activity [32] was 1.42%. For the same compound, the pIC50 [33] was 6.77 and the pIC50 [34] was 6.95.
In the case of `CC(C)n1c2cc(Nc3ccnc(-c4cnn(S(=O)(=O)C5CC5)c4)n3)ncc2c2c(OCC(F)(F)F)cc(N3CCN(C)CC3)cc21`, the pIC50 [35] was 9.55.
